In brackets after ≈: the same amount, converted by molar mass. Read-outs that look alike come from different tables or passages of the source.

The subject of data set [1] is low-density lipoprotein cholesterol from human plasma (LDL). Nature of the data set: LDL oxidation inhibition assay (CuSO4-induced, TBARS). Format: biochemical. The settings on record: copper-induced LDL oxidation, n = 3. On the procedure: The oxidation of LDL was investigated as described by Rattan and Arad. […] The reaction was stopped by adding 50 μL of 1 M EDTA and placing the sample at −20 °C for TBA reactive substance (TBARS) assay. The generation of malonyldialdehyde (MDA) equivalents during LDL oxidation was estimated by the TBARS assay using the method of Steinbrecher et al.. LDL oxidation was carried out as described above. After oxidation, LDL was mixed with 1.5 mL of 0.67% TBA and 1.5 mL of 20% TCA. After placing samples in boiling water (100 °C) for 30 min, the reaction product was kept for 30 min at 25 °C and centrifuged for 15 min at 4 °C. The supernatants were read on a spectrophotometer at 532 nm, blank containing 220 μg/mL LDL only. The yields of MDA were used as a standard and the results were expressed as nanomoles of MDA equivalents.

Data set [2] concerns the target T1, porcine pancreatic lipase (PL) (Sus scrofa, UniProt P00591).
T1 sequence (P00591 1-450): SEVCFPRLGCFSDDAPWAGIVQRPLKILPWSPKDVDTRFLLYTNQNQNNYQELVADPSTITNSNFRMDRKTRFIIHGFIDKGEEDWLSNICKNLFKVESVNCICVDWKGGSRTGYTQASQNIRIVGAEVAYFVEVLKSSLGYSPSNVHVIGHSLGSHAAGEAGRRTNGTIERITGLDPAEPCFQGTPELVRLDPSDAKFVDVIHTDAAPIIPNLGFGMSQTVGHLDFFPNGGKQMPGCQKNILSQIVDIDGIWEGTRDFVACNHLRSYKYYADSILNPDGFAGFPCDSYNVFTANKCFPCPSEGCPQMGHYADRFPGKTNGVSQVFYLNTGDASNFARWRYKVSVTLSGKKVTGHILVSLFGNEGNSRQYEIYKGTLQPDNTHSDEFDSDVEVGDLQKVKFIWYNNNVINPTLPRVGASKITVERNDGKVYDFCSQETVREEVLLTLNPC
As to the kind of experiment: Pancreatic lipase inhibition assay (p-NPB hydrolysis). Format: biochemical. On the procedure: The ability of the different parts of crude extracts to inhibit PL was measured as described previously, with slight modifications. Briefly, an enzyme buffer was prepared by the addition of 30 μL (10 units) of PL solution (in 10 mM MOPS and 1 mM EDTA, pH 6.8) to 850 μL of Tris buffer (100 mM Tris-HCl and 5 mM CaCl2, pH 7.0). […] The reaction was allowed to proceed for 15 min at 37 °C after addition of 20 μL of the substrate solution (10 mM p-NPB in dimethyl formamide). The lipase activity was determined by measuring the hydrolysis of p-NPB to p-nitrophenol at 400 nm using microplate reader. Inhibition of the lipase activity was expressed as the percentage decrease in the OD when PL was incubated with the test compounds.

For data set [3], the system named is enzymes in the cholesterol biosynthetic pathway. The settings on record: cited from earlier work.
For data set [4], the target named is T2, 15-Lipoxygenase from soybean (15-LO) (Glycine max, UniProt P08170).
T2 construct: purchased Cayman Chemical Company
T2 sequence (P08170 whole entry): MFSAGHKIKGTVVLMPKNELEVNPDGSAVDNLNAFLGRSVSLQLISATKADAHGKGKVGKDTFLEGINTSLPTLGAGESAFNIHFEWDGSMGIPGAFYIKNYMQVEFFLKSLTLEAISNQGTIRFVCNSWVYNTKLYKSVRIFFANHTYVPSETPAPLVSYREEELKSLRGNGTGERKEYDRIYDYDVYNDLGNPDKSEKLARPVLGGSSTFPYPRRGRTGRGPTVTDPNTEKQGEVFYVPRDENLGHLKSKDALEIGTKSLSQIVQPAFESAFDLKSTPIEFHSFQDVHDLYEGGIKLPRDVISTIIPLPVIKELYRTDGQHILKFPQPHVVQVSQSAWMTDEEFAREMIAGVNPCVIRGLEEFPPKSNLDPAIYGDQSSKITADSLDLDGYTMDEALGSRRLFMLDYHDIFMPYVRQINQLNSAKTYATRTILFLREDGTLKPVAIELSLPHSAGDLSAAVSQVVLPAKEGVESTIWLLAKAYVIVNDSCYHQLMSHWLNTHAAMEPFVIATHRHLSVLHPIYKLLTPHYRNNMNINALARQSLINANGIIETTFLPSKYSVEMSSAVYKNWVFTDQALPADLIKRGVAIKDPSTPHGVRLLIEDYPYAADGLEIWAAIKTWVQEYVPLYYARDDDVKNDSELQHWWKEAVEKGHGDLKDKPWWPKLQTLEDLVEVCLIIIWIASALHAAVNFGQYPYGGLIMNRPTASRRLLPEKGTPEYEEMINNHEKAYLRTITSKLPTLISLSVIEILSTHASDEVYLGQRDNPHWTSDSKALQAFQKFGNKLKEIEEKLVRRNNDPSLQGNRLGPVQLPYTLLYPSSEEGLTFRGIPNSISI
Nature of the data set: 15-Lipoxygenase inhibition assay (linoleic acid substrate). The format is biochemical. On the procedure:
The final enzyme concentration was 500 units/mL and the test samples were dissolved in DMSO solutions. All measurements were carried out at least twice, in each instance using caffeic and ferulic acids, a well-known inhibitor of 15-LO, as positive controls.

In data set [5] the test system is rat hepatic stellate cells. Also noted: method as in PMID 15787259. The settings on record: cited from earlier work.
For the next data set, the system named is human cancer cell line. On the set-up: method as in PMID 19382453. Particulars: cited from earlier work.
The conditions of data set [6]: normal human; cited from earlier work.
Data set [7] deals with accelerated atherosclerosis in native hearts. Also noted: method as in PMID 8419015. The settings on record: native hearts of a rabbit heart transplant model; cited from earlier work.
The target in the next data set is tyrosinase mushroom (Agaricus bisporus, UniProt C7FF04). Nature of the data set: Anti-tyrosinase activity assay. The format is biochemical. Particulars: n = 3.
Sequence of tyrosinase mushroom (C7FF04 1-392): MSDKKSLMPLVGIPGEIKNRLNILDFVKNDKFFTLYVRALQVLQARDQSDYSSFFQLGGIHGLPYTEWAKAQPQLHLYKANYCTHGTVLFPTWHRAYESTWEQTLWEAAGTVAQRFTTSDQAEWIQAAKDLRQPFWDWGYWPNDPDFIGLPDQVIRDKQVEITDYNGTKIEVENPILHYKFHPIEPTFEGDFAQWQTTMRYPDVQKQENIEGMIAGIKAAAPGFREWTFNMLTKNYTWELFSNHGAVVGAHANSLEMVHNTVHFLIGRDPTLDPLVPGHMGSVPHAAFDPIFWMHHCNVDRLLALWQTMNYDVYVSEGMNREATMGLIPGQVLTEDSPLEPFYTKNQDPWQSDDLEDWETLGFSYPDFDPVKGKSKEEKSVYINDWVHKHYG
Setting [8] is: n = 3, read-out: IC50 pancreatic lipase (PL) inhibition (converted).
The mark [9] stands for this setting: n = 3, read-out: IC50 15-LO inhibition (converted).

Method for tyrosinase mushroom: Tyrosinase activity inhibition was determined by the method as described previously [29]. In brief, sample extracts were dissolved in methanol to make the different concentrations (μg/mL). The 96-well plate was set up in the following order; 120 μL of phosphate buffer (20 mM, pH 6.8), 20 μL of sample and 20 μL of tyrosinase mushroom (500 units/mL in 20 mM phosphate buffer). After incubation at 25 °C for 15 min, reaction was initiated by adding 20 μL of 0.85 mM L-tyrosine solution to each well. The enzyme activity was determined by measuring the absorbance at 470 nm using microplate reader (BioRad, Benchmark microplate reader, Hertfordshire, UK). […] The percentage of tyrosinase inhibition was calculated as follows:
where, A = absorbance of the control with enzyme; B = absorbance of the control without enzyme; C = absorbance of the test sample with enzyme; D = absorbance of the test sample without enzyme.

For orientation: IC50 means the concentration that inhibits the measured activity by half. As to `CC(C)[C@H](C)CC[C@@H](C)[C@H]1CC[C@H]2[C@@H]3CC=C4C[C@@H](O)CC[C@]4(C)[C@H]3CC[C@]12C` [campesterol], in data set [1], the “IC50 LDL oxidation inhibition” value was found to be 149.02 ± 1.93 mg/L (≈ 372 µM). In addition, the values for the IC50 in data set [2] and in data set [4] were 323 µM and 361 µM, respectively. Besides, in data set [3], the “inhibition of enzymes in the cholesterol biosynthetic pathway / cholesterol biosynthesis” value is “could not inhibit”.
Turning to `CC(C)CCC[C@@H](C)[C@H]1CC[C@H]2[C@@H]3CC(=O)C4=CC(=O)CC[C@]4(C)[C@H]3CC[C@]12C` [cholest-4-ene-3,6-dione], the “inhibitory activity on proliferation of rat hepatic stellate cells” value in [5] was “inhibitory activity”. Also, the “IC50 LDL oxidation inhibition” value in [1] came to 16.12 ± 1.43 mg/L (≈ 40.4 µM). Moreover, the IC50 was 48.9 µM in data set [2] (setting [8]) and 85.8 µM in data set [4] (setting [9]). In addition, the “cytotoxic activity against human cancer cell line” value with human cancer cell line was “cytotoxic activity”.
`C[C@]12CC[C@H](O)CC1=CC[C@@H]1[C@@H]2CC[C@]2(C)C(=O)CC[C@@H]12` [dehydroepiandrosterone, 3β-hydroxy-5-androsten-17-one]: the “effect on serum LDL level” value in data set [6] is reported as “reduce serum LDL level”. Further, in [7], the “effect on development of accelerated atherosclerosis” value was “inhibited the development of accelerated atherosclerosis”.
Turning to `COc1cc(/C=C/C(=O)O)ccc1O` [ferulic acid, reference compound], the “IC50 15-LO inhibition” value in [4] (n = 3) amounted to 54.79 ± 1.12 mg/L (≈ 282 µM).
`O=c1c(O)c(-c2ccc(O)c(O)c2)oc2cc(O)cc(O)c12` [quercetin, reference compound]: in data set [1], the “IC50 LDL oxidation inhibition” value worked out at 22.56 ± 0.70 mg/L (≈ 74.6 µM).
As to `CC[C@H](CC[C@@H](C)[C@H]1CC[C@H]2[C@@H]3CC=C4C[C@@H](O)CC[C@]4(C)[C@H]3CC[C@]12C)C(C)C` [sitosterol], the “IC50 LDL oxidation inhibition” value in data set [1] amounted to 97.76 ± 0.77 mg/L (≈ 236 µM). This molecule also yielded an IC50 tyrosinase inhibition on tyrosinase mushroom of 187.77 ± 0.04 mg/L (≈ 453 µM). Moreover, the “IC50 pancreatic lipase (PL) inhibition” value in data set [2] (n = 3) stood at 99.99 ± 1.86 mg/L (≈ 241 µM). Further, in [3], the “inhibition of enzymes in the cholesterol biosynthetic pathway / cholesterol biosynthesis” value was “could not inhibit”. Further, the “IC50 15-LO inhibition” value in data set [4] (n = 3) came to 123.34 ± 1.94 mg/L (≈ 297 µM).
On to `CC[C@H](/C=C/[C@@H](C)[C@H]1CC[C@H]2[C@@H]3CC=C4C[C@@H](O)CC[C@]4(C)[C@H]3CC[C@]12C)C(C)C` [stigmasterol], for which the “IC50 LDL oxidation inhibition” value in data set [1] stood at 50.01 ± 0.77 mg/L (≈ 121 µM). For the same molecule, the IC50 is 303 µM in data set [2] (setting [8]) and 182 µM in [4] (setting [9]). Also, the “inhibition of enzymes in the cholesterol biosynthetic pathway / cholesterol biosynthesis” value in data set [3] is “inhibitory effects”.

The values above are taken from paper PMC6268935, “Antiatherogenic Properties of Acetone Extract of Alpinia zerumbet Seeds” (Molecules, 2012).
